This is an account of results in ChEMBL document CHEMBL1146797, “Design, synthesis, and biological evaluation of novel T-Type calcium channel antagonists” (Bioorg Med Chem Lett, 2004).

The structures appear in SMILES notation.

Test [1] concerns Jurkat. Briefly: Inhibition of calcium influx in jurkat (T cells). The class given is functional, cell-based. To be noted: Homo sapiens.
For test [2], the system named is Jurkat. The experiment in a line: Inhibition of cellular proliferation in jurkat (T cells). The class given is functional, cell-based. The following applies: Homo sapiens.
Test [3] relates to MDA-MB-361. The experiment in a line: Inhibition of calcium influx in MDA-361 (breast) tumor cells. The class given is functional, cell-based. To be noted: Homo sapiens.
Test [4] deals with MDA-MB-361. Briefly: Inhibition of cellular proliferation in MDA-361 (breast) tumor cells. The test is classed as functional, cell-based. The following applies: Homo sapiens.
Test [5] has as its system LNCaP. Briefly: (§1) Inhibition of calcium influx in LNCaP (prostate). The class given is functional, cell-based. The following applies: Homo sapiens, Prostate gland.
Test [6] has as its system LNCaP. Briefly: Inhibition of cellular proliferation in LNCaP (prostate). The test is classed as functional, cell-based. The following applies: Homo sapiens.
Test [7] has as its system LNCaP. Described as §1. The class given is functional, cell-based, Homo sapiens, Prostate gland.

Take `COc1ccc(CCN2CCC[C@H]2COCc2ccc(Cl)cc2)cc1`: the concentration for half-maximal inhibition (IC50) in test [1] turned out to be 25 µM; in test [2], 18 µM; in test [3], 100 µM; in test [4], 15 µM; in test [5], 10 µM; in test [6], 14 µM.

On to `COc1ccc(CCN2CCC[C@H]2COC(c2ccc(F)cc2)c2ccc(F)cc2)cc1`, for which the concentration for half-maximal inhibition (IC50) was 3 µM in test [1]; 5 µM in test [2]; 30 µM in test [3]; 14 µM in test [4]; 10 µM in test [5]; 4 µM in test [6].

Turning to `COc1ccc(CCN2CCC[C@H]2COC(c2ccccc2)c2ccc(Cl)c(Cl)c2)cc1` (some centres undefined), the IC50 was found to be 3 µM in test [1]; 6 µM in test [2]; 10 µM in test [3]; 11 µM in test [4]; 10 µM in test [5]; 4 µM in test [6].

Take `COc1ccc(CCN2CCC[C@H]2COC(c2ccccc2)c2ccc(Br)cc2)cc1` (some centres undefined): the IC50 amounted to 30 µM in test [1]; 40 µM in test [2]; 100 µM in test [3]; 15 µM in test [5]; 15 µM in test [6].

On to `COc1ccccc1CCN1CCC[C@H]1COC(c1ccccc1)c1ccc(Cl)cc1` (some centres undefined), for which the 50% inhibitory concentration (IC50) in test [1] amounted to 1 µM; in test [2], 3.8 µM; in test [3] it was 10 µM; in test [4], 13 µM; in test [5] it was 12 µM; in test [6] it was 2.4 µM.

In the case of `COc1ccc(CCN2CCC[C@H]2COC(c2ccc(Cl)cc2)c2ccc(Cl)cc2)cc1`, the 50% inhibitory concentration (IC50) in test [1] came out at 5 µM; in test [2], 3.6 µM; in test [3], 25 µM; in test [4] it was 11 µM; in test [5], 4 µM; in test [6] it was 3 µM.

Regarding `COc1ccc(CCN2CCCCC2COC(c2ccc(Cl)cc2)c2ccc(Cl)cc2)cc1` (centres undefined), the IC50 is 15 µM in test [1]; 9 µM in test [2]; 30 µM in test [3]; 22 µM in test [4]; 7 µM in test [5]; 4 µM in test [6].

With `COc1ccc(CCN2CCC[C@H]2COC(c2ccccc2)c2ccc(Cl)cc2)cc1` (some centres undefined), the IC50 in test [2] was determined as 6 µM; in test [3], 10 µM; in test [4], 10 µM; in test [5], 4 µM; in test [6], 4 µM.

Consider `CN1CCC[C@H]1COC(c1ccccc1)c1ccc(Cl)cc1` (some centres undefined), for which the IC50 amounted to 30 µM in test [1]; 60 µM in test [2]; 100 µM in test [3]; 47 µM in test [4]; 50 µM in test [5]; 17 µM in test [6].

As for `COc1ccc(CCN2CCCC(COC(c3ccccc3)c3ccc(Cl)cc3)C2)cc1` (centres undefined), the IC50 in test [1] came out at 10 µM; in test [2], 8.8 µM; in test [3] it was 30 µM; in test [4], 13 µM; in test [5] it was 12 µM; in test [6], 6.8 µM.

Consider `COc1ccc(CCN2CCCC(COC(c3ccccc3)c3ccccc3)C2)cc1` (centres undefined), for which the 50% inhibitory concentration (IC50) amounted to 8 µM in test [1]; 13.8 µM in test [2]; 30 µM in test [3]; 17.7 µM in test [4]; 15 µM in test [5]; 9.2 µM in test [6].

Take `COc1ccc(CCCN2CCC[C@H]2COC(c2ccccc2)c2ccc(Cl)cc2)cc1` (some centres undefined): the IC50 in test [1] worked out at 1 µM; in test [2], 4 µM; in test [3], 10 µM; in test [4] it was 11 µM; in test [5], 30 µM; in test [6], 3.5 µM.

In the case of `COc1ccc(CCN2CCC[C@H]2COC(c2ccccc2)c2ccccc2)cc1`, the IC50 in test [1] was 10 µM; in test [2], 12 µM; in test [3], 30 µM; in test [4], 29 µM; in test [5], 30 µM; in test [6] it was 10 µM.

In the case of `COc1ccc(CCN2CCC[C@H]2COCc2ccccc2)cc1`, the IC50 in test [1] was found to be 100 µM; in test [2], 108 µM; in test [3] it was 20 µM; in test [4], 83 µM; in test [5] it was 100 µM; in test [6], 33 µM.

For `COc1cccc(CCN2CCC[C@H]2COC(c2ccccc2)c2ccc(Cl)cc2)c1` (some centres undefined), the IC50 amounted to 3 µM in test [1]; 5 µM in test [2]; 30 µM in test [3]; 29 µM in test [4]; 10 µM in test [5]; 3.2 µM in test [6].

Consider `Oc1ccc(CCN2CCC[C@H]2COC(c2ccccc2)c2ccc(Cl)cc2)cc1` (some centres undefined), for which the half-maximal inhibitory concentration (IC50) in test [1] was 10 µM; in test [2] it was 6 µM; in test [3] it was 30 µM; in test [4] it was 11 µM; in test [5], 10 µM; in test [6], 3 µM.

As for `Clc1ccc(C(OC[C@@H]2CCCN2CCc2ccccc2)c2ccccc2)cc1` (some centres undefined), the IC50 was below 1 µM in test [1]; 11 µM in test [2]; 3 µM in test [3]; 27 µM in test [4]; 30 µM in test [5]; 8 µM in test [6].

As to `COc1ccc(CCN2CCC[C@H]2COC(c2ccc(OC)cc2)c2ccc(OC)cc2)cc1`, the IC50 stood at 15 µM in test [1]; 13 µM in test [2]; 20 µM in test [3]; 15 µM in test [4]; 10 µM in test [5]; 5.1 µM in test [6].

In the case of `COc1ccc(CCN2CCCCC2COC(c2ccccc2)c2ccc(Cl)cc2)cc1` (centres undefined), the half-inhibitory concentration (IC50) was found to be 3 µM in test [1]; 11 µM in test [2]; 30 µM in test [3]; 25 µM in test [4]; 10 µM in test [5]; 5 µM in test [6].

For `COc1ccc(CCN2CCCC(COC(c3ccc(Cl)cc3)c3ccc(Cl)cc3)C2)cc1` (centres undefined), the half-inhibitory concentration (IC50) in test [1] amounted to 10 µM; in test [2] it was 9.6 µM; in test [3] it was 30 µM; in test [4] it was 13 µM; in test [5], 5 µM; in test [6] it was 5 µM.

As to `COc1ccc(CN2CCC[C@H]2COC(c2ccccc2)c2ccc(Cl)cc2)cc1` (some centres undefined), the IC50 in test [1] was 2 µM; in test [2] it was 10 µM; in test [3], 30 µM; in test [4] it was 30 µM; in test [7] it was “No effect”; in test [6], 7.7 µM.

For the compound `COc1ccc(CCN2CCC(COC(c3ccc(Cl)cc3)c3ccc(Cl)cc3)CC2)cc1`, the IC50 in test [1] was determined as 10 µM; in test [2], 11.1 µM; in test [3], 20 µM; in test [4], 7.1 µM; in test [5], 10 µM; in test [6] it was 3.4 µM.

On to `COc1ccc(CCN2CCC(COC(c3ccccc3)c3ccc(Cl)cc3)CC2)cc1` (centres undefined), for which the IC50 in test [1] was found to be 7 µM; in test [2] it was 8.4 µM; in test [3], 25 µM; in test [4], 10.4 µM; in test [5], 5 µM; in test [6], 3.3 µM.

Regarding `COc1ccc(CCN2CCC[C@H]2COC(c2ccccc2)c2ccc(F)cc2)cc1` (some centres undefined), the half-maximal inhibitory concentration (IC50) was 3 µM in test [1]; 13 µM in test [2]; 20 µM in test [3]; 14 µM in test [4]; 10 µM in test [5]; 2 µM in test [6].

As to `COc1ccc(CCN2CCC[C@H]2COC(c2ccc(C)cc2)c2ccc(C)cc2)cc1`, the IC50 in test [1] was 3 µM; in test [2], 11 µM; in test [3], 20 µM; in test [4], 40 µM; in test [5] it was 5 µM; in test [6], 6 µM.

Take `COc1ccc(CCN2CCC(COC(c3ccccc3)c3ccccc3)CC2)cc1`: the concentration for half-maximal inhibition (IC50) came to 20 µM in test [1]; 8.3 µM in test [2]; 30 µM in test [3]; 10 µM in test [4]; 15 µM in test [5]; 5 µM in test [6].

For orientation: IC50 means the concentration that inhibits the measured activity by half.
